In patent publication US6930118B2, “3-Oxadiazol-5-yl-1-aminoalkyl-1h-indole derivatives” (Amrad Operations Pty. Ltd., priority 2001, dated 2005) one finds inhibition and IC50 data, which are given here for one compound.

For one assay, the target named is T1, CB1 receptor (Mus musculus, UniProt P47746).
T1 construct: Mouse vasa deferentia were dissected with capsular connective tissue intact and set up in 20 ml organ baths; from tissue; host or cells: mouse (Swiss white) isolated vas deferens
The assay can be described thus: Mouse electrically-stimulated isolated vas deferens bioassay (MVD). The format is cell-based. The settings on record: decrease of electrically evoked twitch force, read-out: CB1 (MVD) % inh at 1.0 μM. The procedure: Functional activity of the compounds was assayed using the mouse electrically-stimulated vas deferens bioassay, a measure of CB1 receptor function (24,25). […] CB2 functionality may be investigated using assays known to those skilled in the art; for example those described in U.S. Pat. No. 6,013,648.
Swiss white mice (35-40 g) were killed by exposure to 80% CO2 in O2 and exsanguination. Mouse vasa deferentia were dissected with capsular connective tissue intact and set up in 20 ml organ baths at 37° C. in Mg^2+-free physiological salt solution. The upper (epididymal) end was attached to an isometric force transducer (Grass FTO3C) and the lower (prostatic) end tied to a fixed support between two parallel platinum field electrodes (5 mm apart, 5 mm long). The tissue was initially stretched by 0.5 g force and allowed to equilibrate 10 min. The tissues were stimulated (Grass S88 stimulator) to contract using trains of electrical field stimulation of 3 pulses (4 Hz), 0.5 ms duration, 100 V (80% maximal voltage) every 20 s for 10 min. This electrical stimulation period was applied before and after both antagonist and agonist addition. Output from the transducer amplifier was recorded on a flat bed recorder (Gould BS 272, Cleveland, Ohio, U.S.A.). All drugs were dissolved in dimethyl sulfoxide (DMSO; Sigma, St Louis, Mo., U.S.A.) and allowed to equilibrate with the tissue for 30 min before the responses to field stimulation were assessed. Drug effects were measured as the percentage decrease of the pre-drug twitch force.

The next assay has as its target T2, CB2 receptor (Rattus norvegicus, UniProt Q9QZN9).
T2 sequence (Q9QZN9 1-343 limits assumed): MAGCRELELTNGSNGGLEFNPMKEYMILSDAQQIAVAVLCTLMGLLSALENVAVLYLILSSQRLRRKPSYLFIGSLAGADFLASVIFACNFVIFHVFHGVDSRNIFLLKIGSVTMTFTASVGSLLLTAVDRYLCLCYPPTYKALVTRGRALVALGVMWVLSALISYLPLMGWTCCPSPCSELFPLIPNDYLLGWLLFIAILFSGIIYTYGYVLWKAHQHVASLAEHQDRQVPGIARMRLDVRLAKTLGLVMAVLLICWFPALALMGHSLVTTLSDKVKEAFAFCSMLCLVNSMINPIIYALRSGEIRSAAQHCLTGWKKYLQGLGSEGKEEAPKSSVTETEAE
The assay can be described thus: Radioligand binding assay, rat spleen membranes. The procedure:
The affinity of compounds at cannabinoid receptors is routinely assessed using ligand binding assays known to those skilled in the art. Radioligand binding assays were conducted using rat cerebellum or rat spleen. The cerebellum of the rat is known to express predominantly, if not exclusively, the CB1 receptor subtype (20,21). Thus, binding constants obtained from these studies are characterised by a single affinity value, as only one receptor type is labelled. […] In contrast, biphasic binding curves in the spleen characterised by two affinity constants represent the profile of compounds showing selectivity for one receptor subtype over another. In order to determine the order of selectivity, the high and low affinity values obtained for these compounds in the spleen binding assays were compared to the single affinity estimates obtained for the cerebellum (CB1) assays.
Sprague Dawley rats (200-300 g) were killed by gassing with 80% CO2 in O2 and decapitation and the spleen excised rapidly and placed in ice-cold Tris-HCl buffer (Tris 50 mM, MgCl2 3 mM, EGTA 0.2 mM, pH 7.4). The spleen was weighed and diced using a scalpel before homogenisation in 10 volumes of Tris-HCl buffer. The homogenate was then made up to 20 volumes and centrifuged (12,600 g, 5 min, 4° C.), the supernatant was retained and centrifuged (23,800 g, 20 min, 4° C.). The pellet was resuspended in 10 volumes of buffer and assayed for protein content using the method of Bradford (Bradford, 1976) with BSA as the standard. The homogenate was then recentrifuged and the final pellet resuspended in Tris-HCl buffer at a protein concentration of 5 mg/ml and stored in 500 μl aliquots at −80° C. until used for the binding assay.
Ligand binding assays were performed in polypropylene tubes in a total volume of 1 ml containing Tris-HCl buffer, a final concentration of 1 mg/ml BSA, and varying concentrations of drugs. Tubes contained 30 μg of membrane protein and incubation was started by the addition of 100 μl of either 0.5 nM [^3H]SR141716A or 0.2 nM [^3H]WIN 55,212-2. Experiments were carried out in triplicate at 30° C. for 90 min with non-specific binding being defined as radioligand binding in the presence of 1 μM unlabelled WIN 55,212-2. Incubations were terminated by rapid filtration with a M-24 Cell Harvester (Brandel; Gaithersburg, Md., U.S.A.) using ice-cold Tris-HCl buffer containing 0.5 mg/ml BSA. Filters (Wattman GF/B) were soaked for 2 h prior to filtering in a solution of Tris-HCl buffer containing 3 mg/ml BSA and 0.5% w/w polyethyleneimine (PEI). Filters were left to dry thoroughly before placement into scintillation vials with 5 ml of scintillation cocktail (Ultima Gold LSC-cocktail; Packard Bioscience, Meriden, Conn., U.S.A.) being added. Vials were left to stand overnight before the radioactivity was determined using a Model 1409 DSA Liquid Scintillation counter (EG&E Wallac, Gaithersburg, Md., U.S.A.).
The resulting radioligand binding curves were analyzed by nonlinear regression using the program PRISM 3.0 (GraphPad Software, San Diego, Calif.) in order to derive ligand affinity estimates for the cannabinoid receptor(s).

T1 sequence (P47746 whole entry): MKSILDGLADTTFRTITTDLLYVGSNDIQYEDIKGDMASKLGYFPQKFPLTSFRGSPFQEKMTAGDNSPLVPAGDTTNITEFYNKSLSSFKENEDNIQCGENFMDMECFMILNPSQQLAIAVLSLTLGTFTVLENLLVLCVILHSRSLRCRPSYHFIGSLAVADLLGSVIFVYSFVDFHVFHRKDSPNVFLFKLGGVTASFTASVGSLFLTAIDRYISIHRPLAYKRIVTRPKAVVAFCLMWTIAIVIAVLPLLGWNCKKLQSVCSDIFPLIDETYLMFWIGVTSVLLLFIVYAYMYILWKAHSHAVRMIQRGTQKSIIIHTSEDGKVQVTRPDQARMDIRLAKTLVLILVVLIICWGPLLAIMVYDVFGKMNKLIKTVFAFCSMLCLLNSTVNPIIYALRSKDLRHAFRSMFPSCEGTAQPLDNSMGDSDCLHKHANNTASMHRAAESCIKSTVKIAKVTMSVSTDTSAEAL

`c1ccc(Cc2noc(-c3cn(CCN4CCCC4)c4ccccc34)n2)cc1` [Compound 1, 3-(3-Benzyl-[1,2,4]-oxadiazol-5-yl)-1-[2-(pyrrolidin-1-yl)ethyl]-1H-indole]: at CB1 receptor, the inhibition at 1 µM was 80%. Also, on CB2 receptor, the IC50 is 1.6 µM.

A word on the IC50: it is the point on the concentration scale where inhibition reaches its midpoint. A higher IC50 goes with a need for much substance.
